In patent publication US11612603B1, “3-triazolyl methyl-1,3,5-triazine-2,4-dione compounds and preparation method and application thereof” (priority 2022, dated 2023):

Experiments:
SARS-CoV-2 3CL^pro = SARS-CoV-2 3CL^pro (Severe acute respiratory syndrome coronavirus 2 (2019-nCoV) (SARS-CoV-2), UniProt P0DTD1); assay: biochemical; settings: for IC50: 3CL^pro FRET; for inhibition at 0.0001 µM: Conc 0.1 nM; for inhibition at 0.0001 µM / inhibition at 0.001 µM / inhibition at 0.005 µM / inhibition at 0.01 µM / inhibition at 0.02 µM / inhibition at 0.03 µM / inhibition at 0.05 µM / inhibition at 0.1 µM / inhibition at 0.5 µM / inhibition at 1 µM: read-out: Inhibitory activity on 3CL^pro (inhibition rate); for inhibition at 0.001 µM: Conc 1 nM; for inhibition at 0.005 µM: Conc 5 nM; for inhibition at 0.01 µM: Conc 10 nM; for inhibition at 0.02 µM: Conc 20 nM; for inhibition at 0.03 µM: Conc 30 nM; for inhibition at 0.05 µM: Conc 50 nM; for inhibition at 0.1 µM: Conc 100 nM; for inhibition at 0.5 µM: Conc 500 nM; for inhibition at 1 µM: Conc 1000 nM
A549 cells = assay: In vitro cytotoxicity, MTT method, A549 cells; assay type: cell-based; settings: for A549 cell viability: 24 h, MTT
Method: (§1) HepG2, HEK293 and A549 cells were taken in logarithmic growth phase, digested with trypsin to prepare cell suspensions. The cell density was adjusted to 5×10^4 cells/mL, inoculating 180 μL per well in a sterile 96-well cell culture plate, incubating for 24 h at 37° C. in a 5% CO2 incubator. After the cells were attached to the bottom of the well plate, 20 μL of the drug solutions in a concentration gradient were added to each well, and 6 duplicate wells were set up in parallel, including blank group (no cells, no compounds) and control groups (no compounds). After incubating for 24 h at 37° C. in a 5% CO2 constant temperature incubator, 20 μL of 5 g/L MTT solution was added to each well for 4 h. After the incubation, the culture medium in the wells was gently aspirated, 100 μL of DMSO was added to each well, and the cells were shaken at low speed for 10 min on a shaker to fully dissolve the crystals to calculate cell viability. Cell viability (%)=(Sample Group GD Value−Blank Group GD Value)/(Control Group GD Value−Blank Group GD Value)

HepG2 cells = assay: In vitro cytotoxicity, MTT method, HepG2 cells; assay type: cell-based; settings: for HEPG2 cell viability: 24 h, MTT
Method: as §1

HEK293 cells = assay: In vitro cytotoxicity, MTT method, HEK293 cells; assay type: cell-based; settings: for HEK293 cell viability: 24 h, MTT
Method: as §1

In the case of Cn1cc2cc(/N=c3\[nH]c(=O)n(Cc4cnn[nH]4)c(=O)n3Cc3cc(F)c(F)cc3F)c(Cl)cc2n1 [Compound 1], the IC50 (SARS-CoV-2 3CL^pro) is reported as 92.6 nM, the inhibition at 0.0001 µM (SARS-CoV-2 3CL^pro) is reported as 1.68% and the inhibition at 0.001 µM (SARS-CoV-2 3CL^pro) is reported as 2.35%. For the same compound, the inhibition at 0.005 µM (SARS-CoV-2 3CL^pro) was 7.62%, the inhibition at 0.01 µM (SARS-CoV-2 3CL^pro) was 10.9% and the inhibition at 0.02 µM (SARS-CoV-2 3CL^pro) was 15.2%. For the same compound, the inhibition at 0.03 µM (SARS-CoV-2 3CL^pro) was 20.8%, the inhibition at 0.05 µM (SARS-CoV-2 3CL^pro) was 26.2% and the inhibition at 0.1 µM (SARS-CoV-2 3CL^pro) was 59.3%. It also gave an inhibition at 0.5 µM (SARS-CoV-2 3CL^pro) of 82.5%, an inhibition at 1 µM (SARS-CoV-2 3CL^pro) of 96.2% and an A549 cell viability (A549 cells; 1.5625 nM) of 99.46%. It also gave an A549 cell viability (A549 cells; 3.125 nM) of 98.65%, an A549 cell viability (A549 cells; 6.25 nM) of 98.82% and an A549 cell viability (A549 cells; 12.5 nM) of 98.93%. The A549 cell viability (A549 cells; 25 nM) was 98.71%, the A549 cell viability (A549 cells; 50 nM) was 98.76% and the A549 cell viability (A549 cells; 100 nM) was 98.69%. For the same compound, the A549 cell viability (A549 cells; 200 nM) was 95.01%, the A549 cell viability (A549 cells; 400 nM) was 93.02% and the “inhibitory rate on A549 cells compared with positive drugs” value (A549 cells; at any concentration) was “lower than that of PF-07321332 and S-217622”. For the same compound, the HEPG2 cell viability (HepG2 cells; 1.5625 nM) was 97.09%, the HEPG2 cell viability (HepG2 cells; 3.125 nM) was 96.29% and the HEPG2 cell viability (HepG2 cells; 6.25 nM) was 97.83%. It also gave an HEPG2 cell viability (HepG2 cells; 12.5 nM) of 95.39%, an HEPG2 cell viability (HepG2 cells; 25 nM) of 90.35% and an HEPG2 cell viability (HepG2 cells; 50 nM) of 88.09%. It also gave an HEPG2 cell viability (HepG2 cells; 100 nM) of 87.72%, an HEPG2 cell viability (HepG2 cells; 200 nM) of 85.58% and an HEPG2 cell viability (HepG2 cells; 400 nM) of 82.62%. The “inhibitory rate on HepG2 cells compared with positive drugs” value (HepG2 cells; at any concentration) was “lower than that of PF-07321332 and S-217622”, the HEK293 cell viability (HEK293 cells; 1.5625 nM) was 99.03% and the HEK293 cell viability (HEK293 cells; 3.125 nM) was 96.70%. The HEK293 cell viability (HEK293 cells; 6.25 nM) was 94.02%, the HEK293 cell viability (HEK293 cells; 12.5 nM) was 89.50% and the HEK293 cell viability (HEK293 cells; 25 nM) was 86.03%. For the same compound, the HEK293 cell viability (HEK293 cells; 50 nM) was 88.49%, the HEK293 cell viability (HEK293 cells; 100 nM) was 84.87% and the HEK293 cell viability (HEK293 cells; 200 nM) was 83.54%. For the same compound, the HEK293 cell viability (HEK293 cells; 400 nM) was 81.17% and the “inhibitory rate on HEK293 cells compared with positive drugs” value (HEK293 cells; at any concentration) was “lower than that of PF-07321332 and S-217622”.

For Cn1cc2cc(/N=c3\[nH]c(=O)n(Cc4cnn[nH]4)c(=O)n3Cc3ccccc3)c(Cl)cc2n1 [Compound 2], the IC50 (SARS-CoV-2 3CL^pro; class symbols) was 500 to 1000 nM.

In the case of Cc1ccc(Cn2c(=O)n(Cc3cnn[nH]3)c(=O)[nH]/c2=N\c2cc3cn(C)nc3cc2Cl)cc1 [Compound 3], the IC50 (SARS-CoV-2 3CL^pro; class symbols) is reported as 500 to 1000 nM.

For Cn1cc2cc(/N=c3\[nH]c(=O)n(Cc4cnn[nH]4)c(=O)n3Cc3ccc(C(C)(C)C)cc3)c(Cl)cc2n1 [Compound 4], the IC50 (SARS-CoV-2 3CL^pro; class symbols) was 500 to 1000 nM.

In the case of Cn1cc2cc(/N=c3\[nH]c(=O)n(Cc4cnn[nH]4)c(=O)n3Cc3ccc([N+](=O)[O-])cc3)c(Cl)cc2n1 [Compound 5], the IC50 (SARS-CoV-2 3CL^pro; class symbols) is reported as 200 to 500 nM.

COc1ccc(Cn2c(=O)n(Cc3cnn[nH]3)c(=O)[nH]/c2=N\c2cc3cn(C)nc3cc2Cl)cc1 [Compound 6] was tested, and the IC50 (SARS-CoV-2 3CL^pro; class symbols) was over 1000 nM.

Cn1cc2cc(/N=c3\[nH]c(=O)n(Cc4cnn[nH]4)c(=O)n3Cc3ccc(OC(F)(F)F)cc3)c(Cl)cc2n1 [Compound 7] gave an IC50 (SARS-CoV-2 3CL^pro) of under 100 nM and an IC50 (SARS-CoV-2 3CL^pro; class symbols) of under 100 nM.

Cn1cc2cc(/N=c3\[nH]c(=O)n(Cc4cnn[nH]4)c(=O)n3Cc3ccc(F)cc3)c(Cl)cc2n1 [Compound 8] gave an IC50 (SARS-CoV-2 3CL^pro; class symbols) of 200 to 500 nM.

Cn1cc2cc(/N=c3\[nH]c(=O)n(Cc4cnn[nH]4)c(=O)n3Cc3ccc(Cl)cc3)c(Cl)cc2n1 [Compound 9] was tested, and the IC50 (SARS-CoV-2 3CL^pro; class symbols) was 200 to 500 nM.

Cn1cc2cc(/N=c3\[nH]c(=O)n(Cc4cnn[nH]4)c(=O)n3Cc3ccc(C(F)(F)F)cc3)c(Cl)cc2n1 [Compound 12] gave an IC50 (SARS-CoV-2 3CL^pro) of 178 nM, an inhibition at 0.0001 µM (SARS-CoV-2 3CL^pro) of 0.76% and an inhibition at 0.001 µM (SARS-CoV-2 3CL^pro) of 2.33%. For the same compound, the inhibition at 0.005 µM (SARS-CoV-2 3CL^pro) was 5.73%, the inhibition at 0.01 µM (SARS-CoV-2 3CL^pro) was 8.52% and the inhibition at 0.02 µM (SARS-CoV-2 3CL^pro) was 12.1%. For the same compound, the inhibition at 0.03 µM (SARS-CoV-2 3CL^pro) was 16.5%, the inhibition at 0.05 µM (SARS-CoV-2 3CL^pro) was 21.2% and the inhibition at 0.1 µM (SARS-CoV-2 3CL^pro) was 37.2%. For the same compound, the inhibition at 0.5 µM (SARS-CoV-2 3CL^pro) was 68.7%, the inhibition at 1 µM (SARS-CoV-2 3CL^pro) was 88.6% and the A549 cell viability (A549 cells; 1.5625 nM) was 98.52%. For the same compound, the A549 cell viability (A549 cells; 3.125 nM) was 97.34%, the A549 cell viability (A549 cells; 6.25 nM) was 96.55% and the A549 cell viability (A549 cells; 12.5 nM) was 97.32%. For the same compound, the A549 cell viability (A549 cells; 25 nM) was 96.21%, the A549 cell viability (A549 cells; 50 nM) was 98.03% and the A549 cell viability (A549 cells; 100 nM) was 96.61%. For the same compound, the A549 cell viability (A549 cells; 200 nM) was 94.13%, the A549 cell viability (A549 cells; 400 nM) was 90.13% and the “A549 cell viability compared with positive drugs” value (A549 cells; at 12.5 nM and lower) was “higher than that of PF-07321332 and S-217622”. The “toxicity on A549 cells compared with positive drugs” value (A549 cells; at 400 nM and 200 nM) was “slightly higher than that of PF-07321332 and S-217622”, the HEPG2 cell viability (HepG2 cells; 1.5625 nM) was 95.73% and the HEPG2 cell viability (HepG2 cells; 3.125 nM) was 95.07%. For the same compound, the HEPG2 cell viability (HepG2 cells; 6.25 nM) was 93.31%, the HEPG2 cell viability (HepG2 cells; 12.5 nM) was 90.22% and the HEPG2 cell viability (HepG2 cells; 25 nM) was 88.36%. The HEPG2 cell viability (HepG2 cells; 50 nM) was 86.83%, the HEPG2 cell viability (HepG2 cells; 100 nM) was 86.63% and the HEPG2 cell viability (HepG2 cells; 200 nM) was 81.38%. The HEPG2 cell viability (HepG2 cells; 400 nM) was 76.67%, the “HepG2 cell viability compared with positive drugs” value (HepG2 cells; at 12.5 nM and lower) was “higher than that of PF-07321332 and S-217622” and the “toxicity on HepG2 cells compared with positive drugs” value (HepG2 cells; at 400 nM and 200 nM) was “slightly higher than that of PF-07321332 and S-217622”. For the same compound, the HEK293 cell viability (HEK293 cells; 1.5625 nM) was 93.67%, the HEK293 cell viability (HEK293 cells; 3.125 nM) was 93.03% and the HEK293 cell viability (HEK293 cells; 6.25 nM) was 92.31%. The HEK293 cell viability (HEK293 cells; 12.5 nM) was 90.69%, the HEK293 cell viability (HEK293 cells; 25 nM) was 84.22% and the HEK293 cell viability (HEK293 cells; 50 nM) was 82.91%. It also gave an HEK293 cell viability (HEK293 cells; 100 nM) of 81.24%, an HEK293 cell viability (HEK293 cells; 200 nM) of 80.57% and an HEK293 cell viability (HEK293 cells; 400 nM) of 78.23%. The “HEK293 cell viability compared with positive drugs” value (HEK293 cells; at 12.5 nM and lower) was “higher than that of PF-07321332 and S-217622” and the “toxicity on HEK293 cells compared with positive drugs” value (HEK293 cells; at 400 nM and 200 nM) was “slightly higher than that of PF-07321332 and S-217622”.

For Cc1cc(C)cc(Cn2c(=O)n(Cc3cnn[nH]3)c(=O)[nH]/c2=N\c2cc3cn(C)nc3cc2Cl)c1 [Compound 13], the IC50 (SARS-CoV-2 3CL^pro; class symbols) was 500 to 1000 nM.
